We go through 4 sequences from patent US12589143B2, “Human anti-PD-L1 peptide vaccines and methods of their use” (priority 2019, dated 2026).

This test relates to CT26/HER-2 carcinoma cell line. The experiment in a line: CT26/HER-2 tumor challenge in immunized Balb/c mice. It counts as in vivo. As to conditions: for tumor growth inhibition: CT26/HER-2, day 16. An excerpt: (PMID: 29337305). […] Balb/c mice 6-8 weeks old, were immunized with MVF-peptide immunogens emulsified in ISA 720 with nor-MDP three times and three weeks apart. Mice were immunized with MVF-PD-L1 vaccine constructs [PD-L1(36-53), PD-L1(50-67), PD-L1(95-112), PD-L1(130-147)] prior to tumor challenge. Blood was collected weekly and sera tested for antibody titers by ELISA. Two weeks after the third immunization (3Y), the mice were engrafted with CT26 WT tumor cells 10^5 per mouse Control mice were treated twice weekly with PBS as negative control and twice weekly with anti-mPD-L1 mAb (10F.9G2) as positive control starting 2 days after tumor challenge. Tumor growths were observed twice weekly and measured by calipers.
Vaccines were dissolved in water and emulsified in Montanide ISA 720 (1:1) and 50 μg nor-MDP (N-acetylglucosamine-3yl-acetyl-1-alanyl-d-isoglutamine). Female Balb/c mice (Charles River Laboratories) at the age of 5 to 6 week were immunized three times at 3-week intervals with 100 μg of each peptide vaccine, and 2 weeks after the third immunization, the mice were challenged s.c. with CT-26-HER2 neu tumor cells (100,000 per mouse).
Mice treated twice a week with anti-mouse PD-L1 MAb 10F.9G2 (Bio X Cell, West Lebanon, NH) 200 ug/dose was used as a positive control or purified mouse IgG from mouse sera (Sigma-Aldrich, St. Louis, Mo) as a negative control. Tumor growth was monitored for up to 21 days after challenge. During immunization, blood was drawn biweekly and used in ELISA to monitor Ab titers. The mice were euthanized at the end of treatment and tumors extracted and weighed samples of the tumors were saved for further study and for histological examination.
Two weeks after the third immunization (3Y), the mice were inoculated subcutaneously (s.c) with CT26 carcinoma cells (1×10^5 cells per mouse) and tumor formation was monitored on a daily basis afterwards. Mice treated with PBS served as negative control, and twice weekly treated mice with 200 μg/dose injections of anti-mouse PD-L1 monoclonal antibody (mAb clone 10F.9G2) served as positive control. Tumor growth was monitored daily and measured by caliper. […] PD-L1 B-cell epitope vaccines treatment had similar and significant reduction in tumor growth at day 16 post challenge as compared to negative control treatment with PBS (FIG. 19). […] Tumor sizes at various times are also shown in FIG. 20 and one-way analysis of variance (one-way ANOVA) followed by the Tukey's multiple comparisons test were used to compare data in multiple groups or data between groups.
We also analyzed the different isotypes of antibodies being generated by vaccination.
6-8 weeks old BALB/c mice (Charles River, Wilmington, MA) were used as standard animal models. Mouse CT26 colon carcinoma cell line was purchased from American Type Culture Collection Cells and were regularly cultured in RPMI1640 medium containing 10% FBS. CT26/HER2 cells were kindly provided by M. Penichet. Vaccines were dissolved in sterile water and emulsified in Montanide ISA 720 (1:1). Female Balb/c mice (Charles River Laboratories) at the age of 6-8 weeks were immunized three times at 3-week intervals with 100 μg of each peptide vaccine, and 2 weeks after the third immunization, the mice were challenged with CT26 and/or CT26/HER-2 tumor cells, which were implanted subcutaneously (s.c) on the right flank (1×10^5 per mouse). 200 μg of rat α-mouse PD-L1 mAb 10F.9G2 (Bio X Cell, West Lebanon, NH) were administered intraperitoneally (i.p.), twice weekly following tumor inoculation in the control group. Mice were monitored and scored for the formation of palpable tumors on a daily basis and sacrificed if tumors became necrotic or exceeded the predetermined size of 2,000 mm^3. Tumor volumes were measured in cubic millimeters with calipers and calculated with the following formula: A×B^2×0.5, where A is the largest diameter, and B is the widest point perpendicular to length. […]

Where no end group is shown, it is not given here.

Turning to “KLLSLIKGVIVHRLEGVEGPSLFVHGEEDLKVQHSSYRQR (KLLSLIKGVIVHRLEGVEGPSLFVHGEEDLKVQHSSYRQR-NH2) [PD-L1(50)]”, the tumor growth inhibition entry is given as “strongest tumor growth inhibition”.

For the sequence “KLLSLIKGVIVHRLEGVEGPSLLIVYWEMEDKNIIQFVHG (KLLSLIKGVIVHRLEGVEGPSLLIVYWEMEDKNIIQFVHG-NH2) [PD-L1(36)]”, the tumor growth inhibition result is listed as “strongest tumor growth inhibition”.

Turning to “KLLSLIKGVIVHRLEGVEGPSLVTSEHELTCQAEGYPKAE (KLLSLIKGVIVHRLEGVEGPSLVTSEHELTCQAEGYPKAE-NH2) [PD-L1(130)]”, the tumor growth inhibition entry was “strongest tumor growth inhibition”. Besides, for the setting “CT26/HER-2”, the levels of lesions result is given as “lowest levels of lesions” and the “percentage of tumor growth inhibition compared to negative control” value is reported as “Significant higher percentage of tumor growth inhibition”. For the same sequence, the “tumor inhibition versus PBS” value (CT26/HER-2, Balb/c) was “superior tumor growth inhibition”. Further, the survival rate entry (CT26/HER-2, Kaplan-Meier method) was “highest survival rate”. Besides, the “50% mice survival time / survival rate” value (CT26 HER2, compared to the other PD-L1 epitopes) is recorded as “better survival rate”.

Take “KLLSLIKGVIVHRLEGVEGPSLYRCMISYGGADYKRITVK (KLLSLIKGVIVHRLEGVEGPSLYRCMISYGGADYKRITVK-NH2) [PD-L1(95)]”: the tumor growth inhibition entry is on record as “strongest tumor growth inhibition”.
